Measurements published in the supplement of paper PMC13386468.

How the values were obtained:
Test in all cases: IC50 for competition of protein binding to Kinobeads
Conditions in all cases: assay detail: Kinobeads competition in P. falciparum blood-stage lysate
UniProt C0H491 = molecular target: UniProt C0H491
UniProt C0H4A6 = molecular target: UniProt C0H4A6
UniProt C0H4U0 = molecular target: UniProt C0H4U0
UniProt C0H5J6 = molecular target: UniProt C0H5J6
UniProt C6KST5 = molecular target: UniProt C6KST5
UniProt C6KT96 = molecular target: UniProt C6KT96
UniProt O77344 = molecular target: UniProt O77344
UniProt O96153 = molecular target: UniProt O96153
UniProt O97225 = molecular target: UniProt O97225
UniProt O97249 = molecular target: UniProt O97249
Sequence of UniProt O97249 (O97249 whole entry): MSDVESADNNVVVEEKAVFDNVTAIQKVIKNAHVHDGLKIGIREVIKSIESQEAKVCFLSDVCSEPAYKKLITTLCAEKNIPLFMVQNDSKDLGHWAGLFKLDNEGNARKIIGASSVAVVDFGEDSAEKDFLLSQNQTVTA

UniProt O97266 = molecular target: UniProt O97266
UniProt O97284 = molecular target: UniProt O97284
UniProt P61074 = molecular target: UniProt P61074
Sequence of UniProt P61074 (P61074 whole entry): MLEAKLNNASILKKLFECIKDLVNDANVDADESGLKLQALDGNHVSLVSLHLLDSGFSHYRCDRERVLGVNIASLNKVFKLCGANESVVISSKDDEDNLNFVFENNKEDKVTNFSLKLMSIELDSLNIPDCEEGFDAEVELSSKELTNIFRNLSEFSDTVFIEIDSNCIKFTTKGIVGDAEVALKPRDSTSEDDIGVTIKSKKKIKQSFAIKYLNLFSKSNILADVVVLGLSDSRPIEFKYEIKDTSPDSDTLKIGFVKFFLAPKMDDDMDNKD

UniProt Q7KQJ9 = molecular target: UniProt Q7KQJ9
Sequence of UniProt Q7KQJ9 (Q7KQJ9 whole entry): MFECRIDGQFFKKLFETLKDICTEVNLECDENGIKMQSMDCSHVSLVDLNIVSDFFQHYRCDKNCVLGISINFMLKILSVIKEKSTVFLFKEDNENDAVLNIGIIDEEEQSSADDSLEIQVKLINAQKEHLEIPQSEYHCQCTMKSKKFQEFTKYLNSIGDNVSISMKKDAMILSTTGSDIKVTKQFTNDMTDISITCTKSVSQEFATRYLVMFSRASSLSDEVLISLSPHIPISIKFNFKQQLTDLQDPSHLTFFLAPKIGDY

UniProt Q8I1X5 = molecular target: UniProt Q8I1X5
UniProt Q8I3N3 = molecular target: UniProt Q8I3N3
UniProt Q8I3T9 = molecular target: UniProt Q8I3T9
UniProt Q8I423 = molecular target: UniProt Q8I423
Sequence of UniProt Q8I423 (Q8I423 whole entry): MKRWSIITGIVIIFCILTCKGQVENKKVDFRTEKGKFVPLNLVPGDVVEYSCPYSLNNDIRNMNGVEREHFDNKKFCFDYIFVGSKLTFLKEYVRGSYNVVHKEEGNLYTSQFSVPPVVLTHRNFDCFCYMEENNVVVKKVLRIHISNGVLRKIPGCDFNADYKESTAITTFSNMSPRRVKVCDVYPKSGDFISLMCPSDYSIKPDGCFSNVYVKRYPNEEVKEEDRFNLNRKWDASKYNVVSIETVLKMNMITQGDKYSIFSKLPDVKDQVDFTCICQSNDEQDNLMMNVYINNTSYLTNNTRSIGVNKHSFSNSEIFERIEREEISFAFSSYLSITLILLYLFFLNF

UniProt Q8I4Q5 = molecular target: UniProt Q8I4Q5
UniProt Q8I4X0 = molecular target: UniProt Q8I4X0
Sequence of UniProt Q8I4X0 (Q8I4X0 whole entry): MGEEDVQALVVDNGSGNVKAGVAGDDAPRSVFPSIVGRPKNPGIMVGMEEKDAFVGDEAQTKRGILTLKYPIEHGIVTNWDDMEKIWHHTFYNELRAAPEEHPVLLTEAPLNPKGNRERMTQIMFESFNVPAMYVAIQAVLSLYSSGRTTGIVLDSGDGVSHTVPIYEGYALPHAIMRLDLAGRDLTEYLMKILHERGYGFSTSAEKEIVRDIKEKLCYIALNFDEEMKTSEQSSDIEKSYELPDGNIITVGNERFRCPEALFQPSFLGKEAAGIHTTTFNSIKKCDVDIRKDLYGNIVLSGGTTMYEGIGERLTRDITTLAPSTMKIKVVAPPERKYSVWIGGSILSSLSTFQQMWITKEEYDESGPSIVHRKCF

UniProt Q8I527 = molecular target: UniProt Q8I527
UniProt Q8I566 = molecular target: UniProt Q8I566
Sequence of UniProt Q8I566 (Q8I566 whole entry): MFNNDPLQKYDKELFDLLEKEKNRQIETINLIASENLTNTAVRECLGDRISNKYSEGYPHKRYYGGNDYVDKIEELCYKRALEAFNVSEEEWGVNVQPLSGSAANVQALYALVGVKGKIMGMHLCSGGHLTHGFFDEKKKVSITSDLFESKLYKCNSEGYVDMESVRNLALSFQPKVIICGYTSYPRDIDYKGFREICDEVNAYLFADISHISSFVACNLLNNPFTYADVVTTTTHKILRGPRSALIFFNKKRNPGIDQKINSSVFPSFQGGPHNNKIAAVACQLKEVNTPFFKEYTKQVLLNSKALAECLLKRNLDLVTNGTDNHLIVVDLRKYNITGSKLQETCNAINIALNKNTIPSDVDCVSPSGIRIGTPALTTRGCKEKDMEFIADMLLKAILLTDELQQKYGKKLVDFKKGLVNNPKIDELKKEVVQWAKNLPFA

UniProt Q8I5B3 = molecular target: UniProt Q8I5B3
UniProt Q8I5D4 = molecular target: UniProt Q8I5D4
UniProt Q8IAL6 = molecular target: UniProt Q8IAL6
UniProt Q8IAM2 = molecular target: UniProt Q8IAM2
UniProt Q8IB24 = molecular target: UniProt Q8IB24
UniProt Q8IBT2 = molecular target: UniProt Q8IBT2
UniProt Q8IDV0 = molecular target: UniProt Q8IDV0
UniProt Q8IDV5 = molecular target: UniProt Q8IDV5
UniProt Q8IDX8 = molecular target: UniProt Q8IDX8
UniProt Q8IE85 = molecular target: UniProt Q8IE85
UniProt Q8IEE5 = molecular target: UniProt Q8IEE5
UniProt Q8IFM9 = molecular target: UniProt Q8IFM9
UniProt Q8IHT3 = molecular target: UniProt Q8IHT3
UniProt Q8II16 = molecular target: UniProt Q8II16
UniProt Q8II27 = molecular target: UniProt Q8II27
UniProt Q8II43 = molecular target: UniProt Q8II43
UniProt Q8IIC0 = molecular target: UniProt Q8IIC0
UniProt Q8IID2 = molecular target: UniProt Q8IID2
UniProt Q8IID5 = molecular target: UniProt Q8IID5
UniProt Q8IJ72 = molecular target: UniProt Q8IJ72
UniProt Q8IJT9 = molecular target: UniProt Q8IJT9
UniProt Q8IJV7 = molecular target: UniProt Q8IJV7
UniProt Q8IJW0 = molecular target: UniProt Q8IJW0
UniProt Q8IKF0 = molecular target: UniProt Q8IKF0
UniProt Q8IKH3 = molecular target: UniProt Q8IKH3
UniProt Q8IKW5 = molecular target: UniProt Q8IKW5
UniProt Q8ILC8 = molecular target: UniProt Q8ILC8
UniProt Q8ILN8 = molecular target: UniProt Q8ILN8
UniProt Q8IM01 = molecular target: UniProt Q8IM01
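Note: native unpurified kinases from lysate captured on beads bearing immobilized kinase inhibitors, with bead-bound kinases quantified by mass spectrometry across compound doses.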

`O=c1[nH]c2ccc(Cl)cc2c(NC2CN3CCC2CC3)c1-c1nc2ccccc2[nH]1` (stereo unspecified) [CHIR-124] gave an IC50 (UniProt C0H491) of over 20 µM, an IC50 (UniProt C0H4A6) of over 20 µM and an IC50 (UniProt C0H4U0) of over 20 µM. For the same compound, the IC50 (UniProt C0H5J6) was over 20 µM, the IC50 (UniProt C6KST5) was over 20 µM and the IC50 (UniProt C6KT96) was over 20 µM. The IC50 (UniProt O77344) was 2.95 µM, the IC50 (UniProt O96153) was over 20 µM and the IC50 (UniProt O97225) was over 20 µM. The IC50 (UniProt O97249) was over 20 µM, the IC50 (UniProt O97266) was over 20 µM and the IC50 (UniProt O97284) was over 20 µM. For the same compound, the IC50 (UniProt P61074) was over 20 µM, the IC50 (UniProt Q7KQJ9) was over 20 µM and the IC50 (UniProt Q8I1X5) was over 20 µM. The IC50 (UniProt Q8I3N3) was over 20 µM, the IC50 (UniProt Q8I3T9) was over 20 µM and the IC50 (UniProt Q8I423) was over 20 µM. It also gave an IC50 (UniProt Q8I4Q5) of over 20 µM, an IC50 (UniProt Q8I4X0) of over 20 µM and an IC50 (UniProt Q8I527) of over 20 µM. For the same compound, the IC50 (UniProt Q8I566) was over 20 µM, the IC50 (UniProt Q8I5B3) was over 20 µM and the IC50 (UniProt Q8I5D4) was 7.85 µM. The IC50 (UniProt Q8IAL6) was over 20 µM, the IC50 (UniProt Q8IAM2) was over 20 µM and the IC50 (UniProt Q8IB24) was over 20 µM. It also gave an IC50 (UniProt Q8IBT2) of over 20 µM, an IC50 (UniProt Q8IDV0) of over 20 µM and an IC50 (UniProt Q8IDV5) of over 20 µM. It also gave an IC50 (UniProt Q8IDX8) of over 20 µM, an IC50 (UniProt Q8IE85) of over 20 µM and an IC50 (UniProt Q8IEE5) of over 20 µM. The IC50 (UniProt Q8IFM9) was over 20 µM, the IC50 (UniProt Q8IHT3) was over 20 µM and the IC50 (UniProt Q8II16) was over 20 µM. It also gave an IC50 (UniProt Q8II27) of over 20 µM, an IC50 (UniProt Q8II43) of over 20 µM and an IC50 (UniProt Q8IIC0) of over 20 µM. The IC50 (UniProt Q8IID2) was over 20 µM, the IC50 (UniProt Q8IID5) was over 20 µM and the IC50 (UniProt Q8IJ72) was over 20 µM. The IC50 (UniProt Q8IJT9) was over 20 µM, the IC50 (UniProt Q8IJV7) was over 20 µM and the IC50 (UniProt Q8IJW0) was over 20 µM. For the same compound, the IC50 (UniProt Q8IKF0) was over 20 µM, the IC50 (UniProt Q8IKH3) was over 20 µM and the IC50 (UniProt Q8IKW5) was over 20 µM. It also gave an IC50 (UniProt Q8ILC8) of over 20 µM, an IC50 (UniProt Q8ILN8) of over 20 µM and an IC50 (UniProt Q8IM01) of over 20 µM.
